This is an account of results in patent US20210221866A1, “PROTEASE-RESISTANT LIPIDATED GLP-1 ANALOGS” (MEDIMMUNE LIMITED, priority 2015, published 2021).

Each structure is given as a SMILES string. pEC50: −log10 of the molar value. Read-outs that look alike come from different tables or passages of the source. Numbered stars: 1 amine (or outer) side, 2 acyl side, 3 side chain; on linkers, the order of the positions; unused ones are H or OH. Square brackets hold non-standard residues; d marks the D form. Side chains are listed from the residue outwards. Peptide text beside a SMILES is read from it. * marks the point of attachment. C18 diacid = O=C(O)CCCCCCCCCCCCCCCCC(=O)*; γGlu = O=C(O)[C@H](CCC(=O)[*:2])N[*:1]; αMeF = C[C@](N)(Cc1ccccc1)C(=O)O; αMeK = C[C@](N)(CCCCN)C(=O)O; Lauroyl = CCCCCCCCCCCC(=O)*; αMeS = C[C@](N)(CO)C(=O)O; AEEA = NCCOCCOCC(=O)O; Aib = CC(C)(N)C(=O)O

Usually pEC50 stands for the EC50 on a negative log10 scale, so that one unit is a factor of ten.

The experiment addresses T1, human GLP-1 receptor (GLP-1R) (Homo sapiens, UniProt P43220).
T1 construct: expressed in transfected cells; host or cells: HEK293 cells or CHO cells
Briefly: cAMP assay, human GLP-1R cells. In kind it is cell-based. To be noted: for EC50: mean of n1 and n2. On the procedure:
Sample dilutions are made in duplicate.
A frozen cryo-vial of cells expressing the receptor of interest is thawed rapidly in a water-bath, transferred to pre-warmed assay buffer and spun at 240×g for 5 minutes. Cells are re-suspended in assay buffer at a batch-dependent optimized concentration (e.g. hGCGR cells at 2×10^5 cells/ml, hGLP-1R and hGIPR cells at 1×10^5 cells/ml).
To this, 5 μL cell suspension is added and the plates incubated at room temperature for 30 minutes.
cAMP levels are measured using a commercially available cAMP dynamic 2 HTRF kit (Cisbio, Cat #62AM4PEJ), following the two step protocol as per manufacturer's recommendations. In brief; anti-cAMP cryptate (donor fluorophore) and cAMP-d2 (acceptor fluorophore) are made up separately by diluting each 1/20 in conjugate & lysis buffer provided in the kit. 5 μL anti-cAMP cryptate is added to wells of the assay plate, and 5 μL cAMP-d2 is added to wells except non-specific binding (NSB) wells, to which conjugate and lysis buffer are added. […] EC50 values of the synthetic peptides determined in cAMP assays are then determined.
Data is transformed to % Delta F as described in the manufacturer's guidelines and analyzed by 4-parameter logistic fit to determine EC50 values. […] To compare the balance of activities at the GLP-1R and GCGR between different peptides and across different conditions, these can be correlated, where the EC50's are related to those of comparator peptides.
(In general: Cyclic AMP is a second messenger, typically raised through Gs and lowered through Gi signalling.)

[1] abbreviates: cAMP activity, read-out: Mean pM GLP-1R.
The mark [2] stands for this setting: cAMP activity, second determination (n2), read-out: Primary assay EC50 GLP-1R n2.

T1 sequence (P43220 24-463): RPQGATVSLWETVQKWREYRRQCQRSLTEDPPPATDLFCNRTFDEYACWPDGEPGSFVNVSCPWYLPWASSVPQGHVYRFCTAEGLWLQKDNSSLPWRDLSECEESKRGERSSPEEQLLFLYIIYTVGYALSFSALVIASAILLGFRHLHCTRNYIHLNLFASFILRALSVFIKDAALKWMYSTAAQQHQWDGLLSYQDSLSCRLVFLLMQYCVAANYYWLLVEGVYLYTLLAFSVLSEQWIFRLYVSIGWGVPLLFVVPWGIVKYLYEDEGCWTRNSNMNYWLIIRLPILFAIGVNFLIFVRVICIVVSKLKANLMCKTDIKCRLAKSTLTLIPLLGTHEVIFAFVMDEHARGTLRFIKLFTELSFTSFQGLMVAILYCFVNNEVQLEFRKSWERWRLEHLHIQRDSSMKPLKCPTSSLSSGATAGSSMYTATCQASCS

On to `CC[C@H](C)[C@H](NC(=O)[C@](C)(Cc1ccccc1)NC(=O)[C@H](CCC(=O)O)NC(=O)[C@](C)(CCCCN)NC(=O)[C@H](C)NC(=O)[C@H](C)NC(=O)[C@H](CCC(=O)O)NC(=O)[C@H](CCCCNC(=O)COCCOCCNC(=O)COCCOCCNC(=O)CC[C@H](NC(=O)CCCCCCCCCCCCCCCCC(=O)O)C(=O)O)NC(=O)[C@H](CCC(=O)O)NC(=O)[C@H](CC(C)C)NC(=O)[C@](C)(Cc1ccccc1)NC(=O)[C@H](CO)NC(=O)[C@](C)(CO)NC(=O)[C@@H](NC(=O)[C@H](CC(=O)O)NC(=O)[C@H](CO)NC(=O)[C@@H](NC(=O)[C@](C)(Cc1ccccc1)NC(=O)[C@H](CO)NC(=O)CNC(=O)[C@H](CCC(=O)O)NC(=O)C(C)(C)NC(=O)[C@@H](N)Cc1c[nH]cn1)[C@@H](C)O)C(C)C)C(=O)N[C@@H](C)C(=O)N[C@@](C)(Cc1ccccc1)C(=O)N[C@H](C(=O)N[C@H](C(=O)N[C@@](C)(CCCCN)C(=O)NCC(=O)NCC(N)=O)C(C)C)C(C)C` [compound 113] (H-H[Aib]EGS[αMeF]TSDV[αMeS]S[αMeF]LEK([AEEA-AEEA-γGlu-C18 diacid])EAA[αMeK]E[αMeF]IA[αMeF]VV[αMeK]GG-NH2; N-terminus assumed), for which the EC50 under setting [1] came out at 18 pM. Further, the pEC50 under setting [2] is 10.76. For `CC[C@H](C)[C@H](NC(=O)[C@](C)(Cc1ccccc1)NC(=O)[C@H](CCC(=O)O)NC(=O)[C@](C)(CCCCN)NC(=O)[C@H](C)NC(=O)[C@H](C)NC(=O)[C@H](CCC(=O)O)NC(=O)CNC(=O)[C@H](CCC(=O)O)NC(=O)[C@H](CC(C)C)NC(=O)[C@H](CCCCNC(=O)COCCOCCNC(=O)COCCOCCNC(=O)CC[C@H](NC(=O)CCCCCCCCCCCCCCCCC(=O)O)C(=O)O)NC(=O)[C@H](CO)NC(=O)[C@](C)(CO)NC(=O)[C@@H](NC(=O)[C@H](CC(=O)O)NC(=O)[C@H](CO)NC(=O)[C@@H](NC(=O)[C@](C)(Cc1ccccc1)NC(=O)[C@H](CO)NC(=O)CNC(=O)[C@H](CCC(=O)O)NC(=O)C(C)(C)NC(=O)[C@@H](N)Cc1c[nH]cn1)[C@@H](C)O)C(C)C)C(=O)N[C@@H](C)C(=O)N[C@@](C)(Cc1ccccc1)C(=O)N[C@H](C(=O)N[C@H](C(=O)N[C@@](C)(CCCCN)C(=O)NCC(=O)NCC(N)=O)C(C)C)C(C)C` [compound 116] the same measures were 9 pM and 11.04.

Regarding `CCCCCCCCCCCC(=O)N[C@@H](CCC(=O)N[C@@H](CCC(=O)NCCCC[C@H](NC(=O)[C@H](C)NC(=O)[C@H](C)NC(=O)[C@H](CCC(=O)O)NC(=O)CNC(=O)[C@H](CCC(=O)O)NC(=O)[C@H](CC(C)C)NC(=O)[C@](C)(Cc1ccccc1)NC(=O)[C@H](CO)NC(=O)[C@](C)(CO)NC(=O)[C@@H](NC(=O)[C@H](CC(=O)O)NC(=O)[C@H](CO)NC(=O)[C@@H](NC(=O)[C@](C)(Cc1ccccc1)NC(=O)[C@H](CO)NC(=O)CNC(=O)[C@H](CCC(=O)O)NC(=O)C(C)(C)NC(=O)[C@@H](N)Cc1c[nH]cn1)[C@@H](C)O)C(C)C)C(=O)N[C@@H](CCC(=O)O)C(=O)N[C@@](C)(Cc1ccccc1)C(=O)N[C@H](C(=O)N[C@@H](C)C(=O)N[C@@](C)(Cc1ccccc1)C(=O)N[C@H](C(=O)N[C@H](C(=O)N[C@@](C)(CCCCN)C(=O)NCC(=O)NCC(N)=O)C(C)C)C(C)C)[C@@H](C)CC)C(=O)O)C(=O)O` [compound 129], the EC50 under setting [1] was determined as 11.5 pM. For `CC[C@H](C)[C@H](NC(=O)[C@](C)(Cc1ccccc1)NC(=O)[C@H](CCC(=O)O)NC(=O)[C@H](CCCCNC(=O)CC[C@H](NC(=O)CC[C@H](NC(=O)CCCCCCCCCCCCCCCCC(=O)O)C(=O)O)C(=O)O)NC(=O)[C@H](C)NC(=O)[C@H](C)NC(=O)[C@H](CCC(=O)O)NC(=O)CNC(=O)[C@H](CCC(=O)O)NC(=O)[C@H](CC(C)C)NC(=O)[C@](C)(Cc1ccccc1)NC(=O)[C@H](CO)NC(=O)[C@](C)(CO)NC(=O)[C@@H](NC(=O)[C@H](CC(=O)O)NC(=O)[C@H](CO)NC(=O)[C@@H](NC(=O)[C@](C)(Cc1ccccc1)NC(=O)[C@H](CO)NC(=O)CNC(=O)[C@H](CCC(=O)O)NC(=O)C(C)(C)NC(=O)[C@@H](N)Cc1c[nH]cn1)[C@@H](C)O)C(C)C)C(=O)N[C@@H](C)C(=O)N[C@@](C)(Cc1ccccc1)C(=O)N[C@H](C(=O)N[C@H](C(=O)N[C@@](C)(CCCCN)C(=O)NCC(=O)NCC(N)=O)C(C)C)C(C)C` [compound 156], under setting [1], the EC50 amounted to 105 pM. As for `CC[C@H](C)[C@H](NC(=O)[C@](C)(Cc1ccccc1)NC(=O)[C@H](CCC(=O)O)NC(=O)[C@H](CCCCNC(=O)CC[C@H](NC(=O)CC[C@H](NC(=O)CC[C@H](NC(=O)CCCCCCCCCCCCCCCCC(=O)O)C(=O)O)C(=O)O)C(=O)O)NC(=O)[C@H](C)NC(=O)[C@H](C)NC(=O)[C@H](CCC(=O)O)NC(=O)CNC(=O)[C@H](CCC(=O)O)NC(=O)[C@H](CC(C)C)NC(=O)[C@](C)(Cc1ccccc1)NC(=O)[C@H](CO)NC(=O)[C@](C)(CO)NC(=O)[C@@H](NC(=O)[C@H](CC(=O)O)NC(=O)[C@H](CO)NC(=O)[C@@H](NC(=O)[C@](C)(Cc1ccccc1)NC(=O)[C@H](CO)NC(=O)CNC(=O)[C@H](CCC(=O)O)NC(=O)C(C)(C)NC(=O)[C@@H](N)Cc1c[nH]cn1)[C@@H](C)O)C(C)C)C(=O)N[C@@H](C)C(=O)N[C@@](C)(Cc1ccccc1)C(=O)N[C@H](C(=O)N[C@H](C(=O)N[C@@](C)(CCCCN)C(=O)NCC(=O)NCC(N)=O)C(C)C)C(C)C` [compound 157], under setting [1], the EC50 came to 227 pM. As for `CC[C@H](C)[C@H](NC(=O)[C@](C)(Cc1ccccc1)NC(=O)[C@H](CCC(=O)O)NC(=O)[C@H](CCCCNC(=O)COCCOCCNC(=O)COCCOCCNC(=O)CCCCCCCCCCCCCCCCC(=O)O)NC(=O)[C@H](C)NC(=O)[C@H](C)NC(=O)[C@H](CCC(=O)O)NC(=O)CNC(=O)[C@H](CCC(=O)O)NC(=O)[C@H](CC(C)C)NC(=O)[C@](C)(Cc1ccccc1)NC(=O)[C@H](CO)NC(=O)[C@](C)(CO)NC(=O)[C@@H](NC(=O)[C@H](CC(=O)O)NC(=O)[C@H](CO)NC(=O)[C@@H](NC(=O)[C@](C)(Cc1ccccc1)NC(=O)[C@H](CO)NC(=O)CNC(=O)[C@H](CCC(=O)O)NC(=O)C(C)(C)NC(=O)[C@@H](N)Cc1c[nH]cn1)[C@@H](C)O)C(C)C)C(=O)N[C@@H](C)C(=O)N[C@@](C)(Cc1ccccc1)C(=O)N[C@H](C(=O)N[C@H](C(=O)N[C@@](C)(CCCCN)C(=O)NCC(=O)NCC(N)=O)C(C)C)C(C)C` [compound 162], the EC50 under setting [1] was 54 pM. In addition, under setting [2], the negative logarithm of the EC50 (pEC50) is 10.26.

Turning to `CCCCCCCCCCCC(=O)N[C@@H](CCC(=O)NCCOCCOCC(=O)NCCOCCOCC(=O)NCCCC[C@H](NC(=O)CNC(=O)[C@H](CCC(=O)O)NC(=O)[C@H](CC(C)C)NC(=O)[C@H](Cc1ccc(O)cc1)NC(=O)[C@H](CO)NC(=O)[C@H](CO)NC(=O)[C@H](CCCCNC(=O)COCCOCCNC(=O)COCCOCCNC(=O)CC[C@H](NC(=O)CCCCCCCCCCC)C(=O)O)NC(=O)[C@H](CC(=O)O)NC(=O)[C@H](CO)NC(=O)[C@@H](NC(=O)[C@](C)(Cc1ccccc1)NC(=O)[C@H](CO)NC(=O)CNC(=O)[C@H](CCC(=O)O)NC(=O)C(C)(C)NC(=O)[C@@H](N)Cc1c[nH]cn1)[C@@H](C)O)C(=O)N[C@@H](C)C(=O)N[C@@H](C)C(=O)N[C@@](C)(CCCCN)C(=O)N[C@@H](CCC(=O)O)C(=O)N[C@@H](Cc1ccccc1)C(=O)N[C@H](C(=O)N[C@@H](C)C(=O)N[C@@H](CCCCNC(=O)COCCOCCNC(=O)COCCOCCNC(=O)CC[C@H](NC(=O)CCCCCCCCCCC)C(=O)O)C(=O)N[C@H](C(=O)N[C@H](C(=O)N[C@@H](CCC(=O)O)C(=O)NCC(=O)NCC(N)=O)C(C)C)C(C)C)[C@@H](C)CC)C(=O)O` [compound 456] (H-H[Aib]EGS[αMeF]TSDK([AEEA-AEEA-γGlu-Lauroyl])SSYLEGK([AEEA-AEEA-γGlu-Lauroyl])AA[αMeK]EFIAK([AEEA-AEEA-γGlu-Lauroyl])VVEGG-NH2; N-terminus assumed), under “Table 11, tris-lipidated peptides, read-out: Primary assay EC50 Mean pM GLP-1R”, the EC50 came out at 170 pM. Besides, the negative logarithm of the EC50 (pEC50) (Table 11, tris-lipidated peptides, replicate n1, read-out: Primary assay EC50 GLP-1R n1) is 9.94 and the pEC50 (Table 11, tris-lipidated peptides, replicate n2, read-out: Primary assay EC50 GLP-1R n2) is 9.65.
